{"source": "paper PMC8165160", "about": "“Substrate Specificities and Inhibition Pattern of the Solute Carrier Family 10 Members NTCP, ASBT and SOAT” (Frontiers in Molecular Biosciences, 2021)", "key": {"SOAT": {"molecular_target": "T1, SOAT (Homo sapiens, UniProt Q3KNW5)", "T1 construct": "The full-length open reading frames of NTCP, ASBT, and SOAT were cloned; expressed in transfected cells; host or cells: Flp-In T-REX HEK293 (SOAT-HEK293), tetracycline-induced", "T1 sequence (Q3KNW5 1-377)": "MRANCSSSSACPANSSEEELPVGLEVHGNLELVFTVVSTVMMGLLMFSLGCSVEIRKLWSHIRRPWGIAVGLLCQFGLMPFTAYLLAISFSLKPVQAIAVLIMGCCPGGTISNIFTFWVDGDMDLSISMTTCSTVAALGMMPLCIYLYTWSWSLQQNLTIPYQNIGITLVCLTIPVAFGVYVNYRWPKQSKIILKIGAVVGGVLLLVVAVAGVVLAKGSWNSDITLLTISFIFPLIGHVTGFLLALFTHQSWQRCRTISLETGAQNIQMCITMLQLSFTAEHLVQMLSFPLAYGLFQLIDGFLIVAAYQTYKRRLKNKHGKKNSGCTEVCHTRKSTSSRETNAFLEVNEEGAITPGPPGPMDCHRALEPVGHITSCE", "assay": "Transport inhibition in SOAT-HEK293 cells", "format": "cell-based", "conditions": "substrate inhibitors, 1 min after 5 min preincubation", "description": "Cells were washed three times with PBS and were preincubated with the respective inhibitor in sodium transport buffer for 5 min at 37°C. Uptake was initiated by adding the respective radiolabeled substrate to the well and incubating for a fixed time as indicated in the figures at 37°C. Transport was terminated by removing the transport buffer and washing five-times with ice-cold PBS. Cell monolayers were lysed in 1 N NaOH with 0.1% SDS and the cell-associated radioactivity and protein content was determined as described above. For uptake inhibition with the myr-preS1 peptide the sodium transport buffer contained additionally MEM-amino acid solution (ThermoFisher) at 1:50 dilution.\nAll transport or inhibition graphs were generated with GraphPad Prism 6.0 (GraphPad). Determination of IC50 values was done by nonlinear regression analysis using the equation log (inhibitor) vs. response settings. If not stated otherwise in the legends all data represent means ± SD of at least triplicate determinations of representative experiments.\nFIGURE 3 Inhibition of NTCP, ASBT, and SOAT with substrate inhibitors. Transport of [^3H]TC, [^3H]TLC, and [^3H]DHEAS was analyzed in NTCP-HEK293, ASBT-HEK293, and SOAT-HEK293 cells in the presence of the substrate inhibitors TC, TLC, and DHEAS at increasing concentrations ranging from 100 nM till 1000 µM. After 5 min of preincubation with the respective inhibitory compound, 200 nM [^3H]TLC, [^3H]TC or [^3H]DHEAS were added for additional 1 min and the cell lysates were analyzed by liquid scintillation counting. Unspecific uptake of HEK293-FlpIn cells was set to 0%. Carrier-specific uptake without inhibitor was set to 100%.\nTransport of [^3H]TC, [^3H]TLC, and [^3H]DHEAS was analyzed in NTCP-HEK293, ASBT-HEK293, and SOAT-HEK293 cells in the presence of different supposed non-substrate triterpenoid inhibitors as indicated at increasing concentrations ranging from 100 nM till 1000 µM. After 5 min of preincubation with the respective inhibitory compound, 1 µM [^3H]TLC, [^3H]TC or [^3H]DHEAS were added for additional 10 min at 37°C and the cell lysates were analyzed by liquid scintillation counting. Experiments performed without inhibitor were set to 100%. Means of negative controls were subtracted to calculate net transport rates (expressed as percentage of control). Data represent means ± SD of quadruplicate determinations of representative experiments."}, "NTCP": {"molecular_target": "T2, NTCP (Homo sapiens, UniProt Q14973)", "T2 sequence (Q14973 1-349)": "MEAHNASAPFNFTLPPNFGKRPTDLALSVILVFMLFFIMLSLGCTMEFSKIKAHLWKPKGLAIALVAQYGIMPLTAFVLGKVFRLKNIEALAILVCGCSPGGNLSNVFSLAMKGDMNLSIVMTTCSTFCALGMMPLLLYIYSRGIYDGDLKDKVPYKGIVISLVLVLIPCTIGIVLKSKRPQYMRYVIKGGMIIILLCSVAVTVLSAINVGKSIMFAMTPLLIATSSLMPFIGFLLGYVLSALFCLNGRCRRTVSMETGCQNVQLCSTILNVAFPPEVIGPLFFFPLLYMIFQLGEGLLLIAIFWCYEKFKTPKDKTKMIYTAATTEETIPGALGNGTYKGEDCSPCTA", "assay": "Transport kinetics (concentration-dependent uptake) in NTCP-HEK293 cells", "format": "cell-based", "set-up": "The full-length open reading frames of NTCP, ASBT, and SOAT were cloned; expressed in transfected cells; host or cells: Flp-In T-REX HEK293 (NTCP-HEK293), tetracycline-induced", "conditions": "uptake via NTCP, 1 min, 37°C", "description": "Uptake experiments were initiated by replacing the preincubation buffer by 500 μL transport buffer containing the radiolabeled test compound and were performed at 37°C. Transport was terminated by removing the transport buffer and washing five-times with ice-cold PBS. Cell monolayers were lysed in 1 N NaOH with 0.1% SDS and the cell-associated radioactivity was determined by liquid scintillation counting.\nFIGURE 2 NTCP, ASBT, and SOAT transport kinetics. Concentration-dependent uptake was analyzed in NTCP-HEK293, ASBT-HEK293, and SOAT-HEK293 cells for the indicated substrates at increasing substrate concentrations. Stably transfected HEK293 cells were pretreated with 1 μg/ml tetracycline to induce carrier expression. HEK293-FlpIn cells were used as control. Uptake was analyzed for 1 min at 37°C. Afterward, the medium was removed and each cell monolayer was washed and processed to determine the protein content and cell-associated radioactivity. Specific uptake was calculated by subtracting non-specific uptake of the HEK293-FlpIn control cells (open squares) from uptake into carrier-overexpressing HEK293 cells (filled squares) and is shown by broken lines. The values represent means ± SD of duplicate experiments, each with triplicate determinations (n = 6)."}, "[1]": {"conditions": "SOAT IC50, substrate [3H]DHEAS, 200 nM [3H]DHEAS"}, "[2]": {"conditions": "SOAT IC50, substrate [3H]TLC, 200 nM [3H]TLC"}}, "note": "Structures can show the parent of a compound that is named as a salt. Where two headings read alike, the source gives them in different places."}
{"compound": "C[C@]12CC[C@H](OS(=O)(=O)O)CC1=CC[C@@H]1[C@@H]2CC[C@]2(C)C(=O)CC[C@@H]12", "note": "[DHEAS, Dehydroepiandrosterone sulfate]", "values": [{"measurement": "IC50", "setting": "SOAT; [1]", "value": 51.7, "unit": "µM"}, {"measurement": "IC50", "setting": "SOAT; [2]", "value": 15, "unit": "µM"}, {"measurement": "Apparent K m", "setting": "NTCP", "value": "56.1 ± 8.0", "unit": "µM"}, {"measurement": "V max", "setting": "NTCP", "value": "2198 ± 101.7", "unit": "pmol/mg protein/min"}]}
{"compound": "C[C@H](CCC(=O)NCCS(=O)(=O)O)[C@H]1CC[C@H]2[C@@H]3[C@H](O)C[C@@H]4C[C@H](O)CC[C@]4(C)[C@H]3C[C@H](O)[C@]12C", "note": "[Taurocholic acid]", "values": [{"measurement": "IC50", "setting": "SOAT; [1]", "value": 99.7, "unit": "µM"}, {"measurement": "IC50", "setting": "SOAT; [2]", "value": 143, "unit": "µM"}, {"measurement": "Apparent K m", "setting": "NTCP", "value": "13.1 ± 0.8", "unit": "µM"}, {"measurement": "V max", "setting": "NTCP", "value": "2395 ± 59", "unit": "pmol/mg protein/min"}]}
{"compound": "C[C@H](CCC(=O)NCCS(=O)(=O)O)[C@H]1CC[C@H]2[C@@H]3CC[C@@H]4C[C@H](O)CC[C@]4(C)[C@H]3CC[C@]12C", "note": "[Taurolithocholic acid]", "values": [{"measurement": "IC50", "setting": "SOAT; 200 nM [3H]DHEAS, read-out: SOAT IC50, substrate [3H]DHEAS", "value": 3.9, "unit": "µM"}, {"measurement": "IC50", "setting": "SOAT; 200 nM [3H]TLC, read-out: SOAT IC50, substrate [3H]TLC", "value": 2.6, "unit": "µM"}, {"measurement": "Apparent K m", "setting": "NTCP", "value": "18.4 ± 2.3", "unit": "µM"}, {"measurement": "V max", "setting": "NTCP", "value": "5915 ± 189", "unit": "pmol/mg protein/min"}]}
